Among the data in BindingDB's records for doi:10.1021/acsmedchemlett.9b00552 (Bristol-Myers Squibb Research & Development, 2020) are IC50 values, retold here.

pIC50: −log10 of the molar value.

In the assay the target is T1, TGF-beta receptor type-1 (Homo sapiens, UniProt P36897).
T1 sequence (P36897 whole entry): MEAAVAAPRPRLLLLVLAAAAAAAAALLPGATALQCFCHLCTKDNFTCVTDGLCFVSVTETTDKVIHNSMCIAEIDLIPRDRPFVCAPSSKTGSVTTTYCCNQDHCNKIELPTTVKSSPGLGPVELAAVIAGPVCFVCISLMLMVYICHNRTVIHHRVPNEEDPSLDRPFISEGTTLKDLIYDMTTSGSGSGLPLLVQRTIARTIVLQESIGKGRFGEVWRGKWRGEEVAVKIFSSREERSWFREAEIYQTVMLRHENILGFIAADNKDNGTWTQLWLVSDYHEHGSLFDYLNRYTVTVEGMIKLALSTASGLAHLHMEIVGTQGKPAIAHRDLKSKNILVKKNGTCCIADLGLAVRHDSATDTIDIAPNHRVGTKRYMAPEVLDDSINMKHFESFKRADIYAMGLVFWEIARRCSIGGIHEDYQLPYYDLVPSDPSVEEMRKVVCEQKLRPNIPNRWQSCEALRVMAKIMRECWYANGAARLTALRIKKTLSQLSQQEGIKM
Nature of the assay: Inhibition of TGFbetaR1 in TGFbeta-stimulated mink Mv1Lu cells assessed as reduction in SMAD nuclear translocation preincubated for 1 hr followed by TGFbeta-stimulation for 15 mins by array scan based method.

A word on the pIC50: it is the IC50 on a negative log10 scale, so that one unit is a factor of ten. Take `Cc1cccc(-c2ncn(CC(F)F)c2-c2ccc3nccn3c2)n1`: the negative logarithm of the IC50 (pIC50) was 6.38. To `N#Cc1cnc2ccc(-c3c(-c4ccc(F)c(Cl)c4)ncn3CCO)nn12` [6-(4-(3-chloro-4-fluorophenyl)-1-(2-hydroxyethyl)-1H-imidazol-5-yl)imidazo[1,2-b]pyridazine-3-carbonitrile] belongs 6.46.
